Patent publication US9718781B2, “Methods and compounds for treating proliferative disorders and viral infections” (University College Dublin, National University of Ireland, …, priority 2012, dated 2017)
Where “and” joins values, the source holds several entries; their conditions need not be identical. Identical values can stand only once.

Legend:
[1] = test system: A/Puerto Rico/8/1934 (H1N1) influenza A virus; assay type: in vivo, BALB/c mice
TPα = target: T1, TPα (Homo sapiens, UniProt P21731); experiment: U46619-induced [Ca2+]i mobilization in HEK.TPα cells; assay type: cell-based; conditions: for remaining activity at 1 µM: read-out: Percentage of Control, TPα, 1 μM; for remaining activity at 10 µM: read-out: Percentage of Control, TPα, 10 μM
T1 construct: expressed in transfected cells
T1 sequence (P21731 1-343): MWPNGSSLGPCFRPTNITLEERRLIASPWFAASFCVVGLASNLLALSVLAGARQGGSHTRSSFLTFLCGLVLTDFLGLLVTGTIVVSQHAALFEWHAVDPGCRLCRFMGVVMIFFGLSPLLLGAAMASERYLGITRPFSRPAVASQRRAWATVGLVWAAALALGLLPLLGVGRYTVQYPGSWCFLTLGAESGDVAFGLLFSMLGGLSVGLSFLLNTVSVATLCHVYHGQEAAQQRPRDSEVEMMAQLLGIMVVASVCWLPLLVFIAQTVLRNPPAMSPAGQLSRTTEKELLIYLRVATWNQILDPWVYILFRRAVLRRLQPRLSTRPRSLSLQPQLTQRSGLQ
Description: (§1) An appropriate functional test for the evaluation of the agonistic and/or antagonistic potency of the compounds of the invention is the determination of calcium flux. Both TPα and TPβ are coupled to the G-protein Gαq. Therefore, stimulation of these receptors ultimately leads to a release of intracellular calcium ([Ca^2+]i) from intracellular stores. Consequently, the determination of [Ca^2+]i flux represents an appropriate functional test for the evaluation of the agonistic/antagonistic potency of compounds of the invention. Calcium can be measured using a molecule characterized by the covalent combination of a Ca^2+ chelating group and a fluorophore group. The Ca^2+ binding properties of these indicators are formed by the presence of a tetracarboxylic acid core as found for example in EGTA (Ethylene Glycol bis(2-aminoethyl)Tetraacetic Acid). Binding of Ca^2+ produces a wavelength shift in either the excitation or emission fluorescence spectra or a change in the emission intensity. Whereas the Ca^2+ binding to EGTA is pH dependent, recent dyes are designed from an EGTA derivative, BAPTA (1,2-Bis(2-Aminophenoxy)ethane-N,N,N′,N′-Tetraacetic Acid). Loading of these dyes inside cells commonly uses esterified forms (acetoxymethyl ester), which are able to cross the cell membranes and are subsequently hydrolyzed by esterases inside the cell.
(§2) Estimation of [Ca^2+]i flux is calculated from the fluorescence signal (F). For calibration, the maximal fluorescence (Fmax, Ca^2+-saturated form of the dye) as well as minimal fluorescence (Fmin, Ca^2+-free form of the dye) must be determined. These parameters are determined usually in situ after the experiment, for example by subsequent addition to the mixture of a cell-disrupting agent that releases all Ca^2+ such as Triton X100 and a potent Ca^2+-chelating agent such as EGTA. After subtraction of background fluorescence, [Ca^2+]; flux can be calculated for non-ratiometric indicators.
(§3) Intracellular [Ca^2+]; fluxes were measured using a fluorescence plate reader following a modified protocol of Kassack et al., ‘Quantitative comparison of functional screening by measuring intracellular Ca^2+ with radioligand binding at recombinant human dopamine receptors’, AAPS Pharmsci, 2002, 4(4); 102-111, in cell lines (e.g. HEK293 or other cell type) endogenously-expressing or over-expressing either TPα, TPβ or any other receptor or protein to be screened.
(§4) By way of example, HEK 293 cells which have been grown for 3-4 days in normal growth media (minimum essential media containing 10% FBS and 2 mmol/1 L-glutamine), under normal growth conditions (37° C., in humidified 5% CO2 atmosphere) are washed and harvested in KREBs-HEPES buffer (118 mM NaCl, 4.7 mM KCl, 1.2 mM MgSO4, 1.2 mM KH2PO4, 4.2 mM NaHCO3, 11.7 mM D-glucose, 1.3 mM CaCl2, 10 mM HEPES, pH 7.4). Cells are then incubated with 3 μM Fluo-4 in KREBs-HEPES buffer containing 1% Pluoronic F-127, for 1 hr at 25° C. with agitation. Then, cells are washed in KREBs-HEPES buffer containing 0.5% BSA and re-suspended at a final concentration of 3×10^5 cells/ml. Approx. 5.4×10^4 cells per well are plated in a 96-well plate and pre-incubated with test compounds for 10 m prior to measuring the fluorescence intensity at 520 nm for 25 seconds at 1 s intervals to monitor baseline using the Fluoroskan Ascent. Agonist (e.g., 1 μM U46619) is injected into separate wells by the automatic pipettor and fluorescence intensity is monitored at 520 nm for 75 seconds at 1 s intervals. Thereafter, Triton X100 and EGTA are added sequentially where Fmax refers to maximal fluorescence intensity measured after permeabilization of the cells with 2% Triton X100 and Fmin refers to fluorescence intensity measured after addition of 1 mM EGTA.
(§5) The dye Fluo-4 has its excitation peak at 480 nm, in the visible spectra, which spare cells to be damaged by UV (340-360 nm) stimulation and reduces auto-fluorescence of cells. […]

TPβ = target: T2, TPβ (Homo sapiens, UniProt P21731); experiment: U46619-induced [Ca2+]i mobilization in HEK.TPβ cells; assay type: cell-based; conditions: 1 μM U46619; for remaining activity at 1 µM: read-out: Percentage of Control, TPβ, 1 μM; for remaining activity at 10 µM: read-out: Percentage of Control, TPβ, 10 μM
T2 construct: expressed in transfected cells
T2 sequence (P21731 1-407 isoform P21731-2): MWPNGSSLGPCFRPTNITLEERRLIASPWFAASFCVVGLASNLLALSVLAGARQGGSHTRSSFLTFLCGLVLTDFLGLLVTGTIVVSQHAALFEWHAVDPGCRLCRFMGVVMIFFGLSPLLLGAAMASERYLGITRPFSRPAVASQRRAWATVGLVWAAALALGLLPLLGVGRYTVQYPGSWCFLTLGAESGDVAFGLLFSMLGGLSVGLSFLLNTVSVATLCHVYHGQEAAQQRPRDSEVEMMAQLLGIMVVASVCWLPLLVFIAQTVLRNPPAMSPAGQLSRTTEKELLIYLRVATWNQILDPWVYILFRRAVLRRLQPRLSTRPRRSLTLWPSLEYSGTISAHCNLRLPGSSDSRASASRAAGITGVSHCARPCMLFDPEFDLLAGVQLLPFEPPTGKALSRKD
Description: as §1, §2, §3, §4, §5

[2] = lung, Day 4, Tamiflu 10 mg/kg, TP20 0.36 mg/kg
[3] = lung, Day 4, number of animals of 3
[4] = antagonist 1 μM, 1 μM U46619, % of agonist-induced response in vehicle-treated cells
[5] = antagonist 10 μM, 1 μM U46619, % of agonist-induced response in vehicle-treated cells
[6] = antagonist 1 μM, % of agonist-induced response in vehicle-treated cells
[7] = antagonist 10 μM, % of agonist-induced response in vehicle-treated cells

## CCOC(=O)C1=C[C@@H](OC(CC)CC)[C@H](NC(C)=O)[C@@H](N)C1 [Tamiflu]
[1]; Tamiflu 10 mg/kg, TP20 360 μg/kg, 14 days
  survival over the study: survived the full duration
[1]; lung, Day 4, 3 animals
  Alveolar Acute Inflammation, number of animals with the finding: (1)
  Bronchiolar Erosion, number of animals with the finding: (3)
  Bronchiolar Exudate, number of animals with the finding: (3)
  Bronchiolar acute Inflammation, number of animals with the finding: (3)
  Vascular Necrosis, number of animals with the finding: (0)
[1]; [2]
  Extent of Perivascular Edema (Mean ± S.E.M.), Per Animal: 21.2 ± 1.71 (52) arbitrary units and 20.7 ± 1.21 (66) arbitrary units and 19.3 ± 1.24 (77) arbitrary units
  Extent of Perivascular Edema (Mean ± S.E.M.), Per Treatment Group: 20.6 ± 0.90 arbitrary units
  reduction in the perivascular edema compared to vehicle: does not reduce the extent of perivascular edema
[1]; [3]
  Alveolar Acute Inflammation, Minimal: 1
  Bronchiolar Erosion, Mild: 2
  Bronchiolar Erosion, Minimal: 0
  Bronchiolar Erosion, Moderate: 1
  Bronchiolar Exudate, Mild: 2
  Bronchiolar Exudate, Minimal: 1
  Bronchiolar Exudate, Moderate: 0
  Bronchiolar acute Inflammation, Mild: 3
  Bronchiolar acute Inflammation, Minimal: 0
  Perivascular Edema, Mild: 1
  Perivascular Edema, Minimal: 1
[1]; mouse, in vivo
  Day of Minimum Body Weight Recorded, Mean (Mean Day to Recovery): 8.4
  Day of Minimum Body Weight Recorded, per animal: 9 (7×) and 7 (3×)
  Perivascular Edema, number of animals with the finding: (2)
[1]; n = 10/group
  Weight @ Day 0: 17.56 ± 0.18
  Weight @ Day 14: 17.4 ± 0.32

## COc1ccc(-c2cccc(Oc3cc(C)c(C#N)cc3S(=O)(=O)NC(=O)NC(C)(C)C)c2)cc1 [NTP32, N-(tert-butylcarbamoyl)-5-cyano-2-((4′-methoxy-[1,1′-biphenyl]-3-yl)oxy)-4-methyl benzenesulfonamide]
TPα; [4]
  Percentage of Control, TPα, 1 μM: 80.3 ± 4.21%
TPα; [5]
  Percentage of Control, TPα, 10 μM: 69.3 ± 2.07%
TPβ; [6]
  Percentage of Control, TPβ, 1 μM: 93.6 ± 4.06%
TPβ; [7]
  Percentage of Control, TPβ, 10 μM: 46.2 ± 4.83%

## COc1ccc(-c2cccc(Oc3ccc(C(=O)N4CCOCC4)cc3S(=O)(=O)NC(=O)NC(C)(C)C)c2)cc1 [NTP22]
TPα; [4]
  remaining activity at 1 µM: 101 ± 7.28%
TPα; [5]
  remaining activity at 10 µM: 87.6 ± 11.3%
TPβ; [6]
  remaining activity at 1 µM: 85.1 ± 4.38%
TPβ; [7]
  remaining activity at 10 µM: 50.1 ± 4.06%

## COc1ccc(-c2cccc(Oc3ccc(C(=O)O)cc3S(=O)(=O)NC(=O)NC(C)(C)C)c2)cc1 [NTP5, 3-(N-(tert-butylcarbamoyl)sulfamoyl)-4-((4′-methoxy-[1,1′-biphenyl]-3-yl)oxy)benzoic acid]
TPα; [4]
  remaining activity at 1 µM: 98.7 ± 9.29%
TPα; [5]
  remaining activity at 10 µM: 61.7 ± 1.42%
TPβ; [6]
  remaining activity at 1 µM: 88.3 ± 5.27%
TPβ; [7]
  remaining activity at 10 µM: 72 ± 3.87%

## COc1ccc(-c2cccc(Oc3ccc(C(=O)NCCN(C)C)cc3S(=O)(=O)NC(=O)NC(C)(C)C)c2)cc1 [NTP15]
TPα; [4]
  remaining activity at 1 µM: 79.8 ± 8.81%
TPα; [5]
  remaining activity at 10 µM: 52.6 ± 8.42%
TPβ; [6]
  remaining activity at 1 µM: 87.6 ± 8.28%
TPβ; [7]
  remaining activity at 10 µM: 86.1 ± 5.64%

## COc1ccc(-c2cccc(Oc3ccc(F)cc3S(=O)(=O)NC(=O)NC(C)(C)C)c2)cc1 [NTP8, N-(tert-butylcarbamoyl)-5-fluoro-2-((4′-methoxy-[1,1′-biphenyl]-3-yl)oxy)benzene-sulfonamide]
TPα; [4]
  remaining activity at 1 µM: 68 ± 5.05%
TPα; [5]
  remaining activity at 10 µM: 49.9 ± 6.91%
TPβ; antagonist 1 μM
  activity class in HEK.TPβ cells: ACTIVE
TPβ; [6]
  remaining activity at 1 µM: 59.4 ± 1.85%
TPβ; [7]
  remaining activity at 10 µM: 14.6 ± 2.72%

## Cc1ccc(Nc2ccc([N+](=O)[O-])cc2S(=O)(=O)NC(=O)NC(C)(C)C)cc1 [BM573, reference compound]
TPα; [4]
  remaining activity at 1 µM: 48.5 ± 1.77%
TPα; [5]
  remaining activity at 10 µM: 12 ± 0.76%
TPβ; [6]
  remaining activity at 1 µM: 23.8 ± 0.68%
TPβ; [7]
  remaining activity at 10 µM: 9.9 ± 1.8%

## COc1ccc(-c2cccc(Oc3ccc(C(=O)Nc4ccccc4)cc3S(=O)(=O)NC(=O)NC(C)(C)C)c2)cc1 [NTP25]
TPα; [4]
  remaining activity at 1 µM: 80 ± 7.15%
TPα; [5]
  remaining activity at 10 µM: 65.5 ± 6.32%
TPβ; [6]
  remaining activity at 1 µM: 61.6 ± 1.93%
TPβ; [7]
  remaining activity at 10 µM: 14.8 ± 2.03%

## CCCCCNC(=O)NS(=O)(=O)c1cc([N+](=O)[O-])ccc1Oc1cccc(-c2ccc(C)cc2)c1 [IX]
TPα; HEK.TPα cells, 1 μM U46619, Table 2, read-out: IC50 data for U46619-mediated [Ca2+]i mobilization, TPα
  IC50: 11.6 µM
TPα; IC50 TPα/IC50 TPβ
  TPα:TPβ Selectivity Ratio: 7.5
TPβ; HEK.TPβ cells, Table 2, read-out: IC50 data for U46619-mediated [Ca2+]i mobilization, TPβ
  IC50: 1.54 µM

## COc1ccc(-c2cccc(Oc3ccc(-c4ccoc4)cc3S(=O)(=O)NC(=O)NC(C)(C)C)c2)cc1 [NTP20]
TPα; [4]
  remaining activity at 1 µM: 72.4 ± 5.97%
TPα; [5]
  remaining activity at 10 µM: 55.7 ± 5.84%
TPβ; [6]
  remaining activity at 1 µM: 42.5 ± 2.32%
TPβ; [7]
  remaining activity at 10 µM: 18.5 ± 3.53%
